# Columns and labels:
# Assay type in all cases: in vivo
# Kochia (Kochia scoparia) [1] = test: Test A preemergence; settings: Bassia scoparia, pre-emergence, 240 h, 0 to 100 scale where 0 is no effect and 100 is complete control, read-out: Kochia plant response rating; for pest or weed control at 31 g/ha: 31 g ai/ha, Preemergence; for pest or weed control at 125 g/ha: 125 g ai/ha, preemergence, approx. 10 d
# Summary of the method: (§1)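 Compounds were formulated in a non-phytotoxic solvent mixture with surfactant and applied as a preemergence directed soil spray after seeding, or sprayed postemergence over plants 2 to 10 cm tall at the one- to two-leaf stage. Evaluation after about 10 d compared treated with untreated controls, using a scale from 0 (no effect) to 100 (complete control).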
# [2] = test system: barnyardgrass (Echinochloa crus-galli); test: Test A preemergence; settings: Echinochloa crus-galli, pre-emergence, 240 h, 0 to 100 scale where 0 is no effect and 100 is complete control, read-out: Barnyardgrass plant response rating; for pest or weed control at 31 g/ha: 31 g ai/ha, Preemergence; for pest or weed control at 125 g/ha: 125 g ai/ha, preemergence, approx. 10 d
# Summary of the method: as §1
# [3] = test system: giant foxtail (Setaria faberii); test: Test A preemergence; settings: Setaria faberi, pre-emergence, 240 h, 0 to 100 scale where 0 is no effect and 100 is complete control, read-out: Foxtail, Giant plant response rating; for pest or weed control at 31 g/ha: 31 g ai/ha, Preemergence; for pest or weed control at 125 g/ha: 125 g ai/ha, preemergence, approx. 10 d
# Summary of the method: as §1
# [4] = test system: pigweed (Amaranthus retroflexus); test: Test A preemergence; settings: Amaranthus retroflexus, pre-emergence, 240 h, 0 to 100 scale where 0 is no effect and 100 is complete control, read-out: Pigweed plant response rating; for pest or weed control at 31 g/ha: 31 g ai/ha, Preemergence; for pest or weed control at 125 g/ha: 125 g ai/ha, preemergence, approx. 10 d
# [5] = test system: ragweed (common ragweed, Ambrosia elatior); test: Test A preemergence; settings: Ambrosia artemisiifolia, pre-emergence, 240 h, 0 to 100 scale where 0 is no effect and 100 is complete control, read-out: Ragweed plant response rating; for pest or weed control at 31 g/ha: 31 g ai/ha, Preemergence; for pest or weed control at 125 g/ha: 125 g ai/ha, preemergence, approx. 10 d
# Summary of the method: as §1
# [6] = test system: ryegrass, Italian (Italian ryegrass, Lolium multiflorum); test: Test A preemergence; settings: Lolium multiflorum, pre-emergence, 240 h, 0 to 100 scale where 0 is no effect and 100 is complete control, read-out: Ryegrass, Italian plant response rating; for pest or weed control at 31 g/ha: 31 g ai/ha, Preemergence; for pest or weed control at 125 g/ha: 125 g ai/ha, preemergence, approx. 10 d
# Summary of the method: as §1
# [7] = test system: Galium (catchweed bedstraw, Galium aparine); test: Test A postemergence; settings: Galium, post-emergence, 240 h; for pest or weed control at 125 g/ha: 125 g ai/ha, postemergence, visual injury on 0 to 100 scale (0 no effect, 100 complete control), approx. 10 d, read-out: Galium plant response rating; for pest or weed control at 31 g/ha: Postemergence, 31 g ai/ha, visual injury after approx. 10 d, 0 to 100 scale, 0 no effect, 100 complete control, read-out: Plant response rating, Galium
# Summary of the method: as §1
# Kochia (Kochia scoparia) [8] = test: Test A postemergence; settings: Bassia scoparia, post-emergence, 240 h; for pest or weed control at 125 g/ha: 125 g ai/ha, postemergence, visual injury on 0 to 100 scale (0 no effect, 100 complete control), approx. 10 d, read-out: Kochia plant response rating; for pest or weed control at 31 g/ha: Postemergence, 31 g ai/ha, visual injury after approx. 10 d, 0 to 100 scale, 0 no effect, 100 complete control, read-out: Plant response rating, Kochia
# Summary of the method: as §1
# [9] = test system: barnyardgrass (Echinochloa crus-galli); test: Test A postemergence; settings: Echinochloa crus-galli, post-emergence, 240 h; for pest or weed control at 125 g/ha: 125 g ai/ha, postemergence, visual injury on 0 to 100 scale (0 no effect, 100 complete control), approx. 10 d, read-out: Barnyardgrass plant response rating; for pest or weed control at 31 g/ha: Postemergence, 31 g ai/ha, visual injury after approx. 10 d, 0 to 100 scale, 0 no effect, 100 complete control, read-out: Plant response rating, Barnyardgrass
# Summary of the method: as §1
# [10] = test system: blackgrass (Alopecurus myosuroides); test: Test A postemergence; settings: Alopecurus myosuroides, post-emergence, 240 h; for pest or weed control at 125 g/ha: 125 g ai/ha, postemergence, visual injury on 0 to 100 scale (0 no effect, 100 complete control), approx. 10 d, read-out: Blackgrass plant response rating; for pest or weed control at 31 g/ha: Postemergence, 31 g ai/ha, visual injury after approx. 10 d, 0 to 100 scale, 0 no effect, 100 complete control, read-out: Plant response rating, Blackgrass
# Summary of the method: as §1
# corn (Zea mays) = test: Test A postemergence; settings: Zea mays, post-emergence, 240 h; for plant injury at 125 g/ha: 125 g ai/ha, postemergence, visual injury on 0 to 100 scale (0 no effect, 100 complete control), approx. 10 d, read-out: Corn plant response rating; for Corn plant response rating (crop injury, 0 = no effect, 100 = complete kill) at 31 g/ha: Postemergence, 31 g ai/ha, visual injury after approx. 10 d, 0 to 100 scale, 100 complete control
# Summary of the method: as §1
# [11] = test system: giant foxtail (Setaria faberii); test: Test A postemergence; settings: Setaria faberi, post-emergence, 240 h; for pest or weed control at 125 g/ha: 125 g ai/ha, postemergence, visual injury on 0 to 100 scale (0 no effect, 100 complete control), approx. 10 d, read-out: Foxtail, Giant plant response rating; for pest or weed control at 31 g/ha: Postemergence, 31 g ai/ha, visual injury after approx. 10 d, 0 to 100 scale, 0 no effect, 100 complete control, read-out: Plant response rating, Foxtail, Giant
# Summary of the method: as §1
# [12] = test system: pigweed (Amaranthus retroflexus); test: Test A postemergence; settings: Amaranthus retroflexus, post-emergence, 240 h; for pest or weed control at 125 g/ha: 125 g ai/ha, postemergence, visual injury on 0 to 100 scale (0 no effect, 100 complete control), approx. 10 d, read-out: Pigweed plant response rating; for pest or weed control at 31 g/ha: Postemergence, 31 g ai/ha, visual injury after approx. 10 d, 0 to 100 scale, 0 no effect, 100 complete control, read-out: Plant response rating, Pigweed
# Summary of the method: as §1
# [13] = test system: ragweed (common ragweed, Ambrosia elatior); test: Test A postemergence; settings: Ambrosia artemisiifolia, post-emergence, 240 h; for pest or weed control at 125 g/ha: 125 g ai/ha, postemergence, visual injury on 0 to 100 scale (0 no effect, 100 complete control), approx. 10 d, read-out: Ragweed plant response rating; for pest or weed control at 31 g/ha: Postemergence, 31 g ai/ha, visual injury after approx. 10 d, 0 to 100 scale, 0 no effect, 100 complete control, read-out: Plant response rating, Ragweed
# Summary of the method: as §1
# [14] = test system: ryegrass, Italian (Italian ryegrass, Lolium multiflorum); test: Test A postemergence; settings: Lolium multiflorum, post-emergence, 240 h; for pest or weed control at 125 g/ha: 125 g ai/ha, postemergence, visual injury on 0 to 100 scale (0 no effect, 100 complete control), approx. 10 d, read-out: Ryegrass, Italian plant response rating; for pest or weed control at 31 g/ha: Postemergence, 31 g ai/ha, visual injury after approx. 10 d, 0 to 100 scale, 0 no effect, 100 complete control, read-out: Plant response rating, Ryegrass, Italian
# Summary of the method: as §1
# [15] = test system: wheat (Triticum aestivum); test: Test A postemergence; settings: Triticum aestivum, post-emergence, 240 h; for plant injury at 125 g/ha: 125 g ai/ha, postemergence, visual injury on 0 to 100 scale (0 no effect, 100 complete control), approx. 10 d, read-out: Wheat plant response rating; for plant injury at 31 g/ha: Postemergence, 31 g ai/ha, visual injury after approx. 10 d, 0 to 100 scale, 0 no effect, 100 complete control, read-out: Plant response rating, Wheat
# Summary of the method: as §1
# [16] = test system: barnyardgrass (Echinochloa crus-galli); test: Test B flooded paddy test; settings: Echinochloa crus-galli, 250 g ai/ha, Flood; 0 to 100 scale where 0 is no effect and 100 is complete control; read-out: Barnyardgrass plant response rating
# Summary of the method: (§2)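 Flooding to 3 cm over soil accompanied treatment, which consisted of adding compound to the standing water around 2-leaf plants; depth was then maintained. Visual assessment versus controls followed at 13 to 15 d (scale 0–100, 0 meaning no effect).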
# [17] = test system: ducksalad (Heteranthera limosa); test: Test B flooded paddy test; settings: Heteranthera limosa, 250 g ai/ha, Flood; 0 to 100 scale where 0 is no effect and 100 is complete control; read-out: Ducksalad plant response rating
# Summary of the method: as §2
# rice (Oryra sativa) = test: Test B flooded paddy test; settings: Oryza sativa, 250 g ai/ha, Flood; 0 to 100 scale where 0 is no effect and 100 is complete control; read-out: Rice plant response rating
# Summary of the method: as §2
# [18] = test system: sedge, umbrella (small-flower umbrella sedge, Cyperus difformis); test: Test B flooded paddy test; settings: Cyperus difformis, 250 g ai/ha, Flood; 0 to 100 scale where 0 is no effect and 100 is complete control; read-out: Sedge, Umbrella plant response rating
# Summary of the method: as §2
structure (smiles),measurement,setting,value
C=C(C)c1cccc([C@H]2CN(C)C(=O)[C@@H]2C(=O)Nc2cccc(F)c2F)c1 [Compound 1085],pest or weed control at 31 g/ha,Kochia (Kochia scoparia) [1],0%
same,pest or weed control at 125 g/ha,Kochia (Kochia scoparia) [1],0%
same,pest or weed control at 31 g/ha,[2],0%
same,pest or weed control at 125 g/ha,[2],90%
same,pest or weed control at 31 g/ha,[3],90%
same,pest or weed control at 125 g/ha,[3],100%
same,pest or weed control at 31 g/ha,[4],0%
same,pest or weed control at 125 g/ha,[4],0%
same,pest or weed control at 31 g/ha,[5],0%
same,pest or weed control at 125 g/ha,[5],0%
same,pest or weed control at 31 g/ha,[6],0%
same,pest or weed control at 125 g/ha,[6],0%
same,pest or weed control at 125 g/ha,[7],60%
same,pest or weed control at 31 g/ha,[7],40%
same,pest or weed control at 125 g/ha,Kochia (Kochia scoparia) [8],20%
same,pest or weed control at 31 g/ha,Kochia (Kochia scoparia) [8],0%
same,pest or weed control at 125 g/ha,[9],90%
same,pest or weed control at 31 g/ha,[9],40%
same,pest or weed control at 125 g/ha,[10],20%
same,pest or weed control at 31 g/ha,[10],0%
same,plant injury at 125 g/ha,corn (Zea mays),20%
same,"Corn plant response rating (crop injury, 0 = no effect, 100 = complete kill) at 31 g/ha",corn (Zea mays),20%
same,pest or weed control at 125 g/ha,[11],60%
same,pest or weed control at 31 g/ha,[11],0%
same,pest or weed control at 125 g/ha,[12],20%
same,pest or weed control at 31 g/ha,[12],0%
same,pest or weed control at 125 g/ha,[13],0%
same,pest or weed control at 31 g/ha,[13],0%
same,pest or weed control at 125 g/ha,[14],20%
same,pest or weed control at 31 g/ha,[14],0%
same,plant injury at 125 g/ha,[15],20%
same,plant injury at 31 g/ha,[15],0%
same,pest or weed control at 250 g/ha,[16],60%
same,pest or weed control at 250 g/ha,[17],30%
same,pest or weed control at 250 g/ha,rice (Oryra sativa),25%
same,pest or weed control at 250 g/ha,[18],0%
CN1C[C@H](c2ccc(C(F)(F)F)cn2)[C@@H](C(=O)Nc2ccc(F)c(F)c2F)C1=O [Compound 1106],pest or weed control at 31 g/ha,Kochia (Kochia scoparia) [1],0%
same,pest or weed control at 125 g/ha,Kochia (Kochia scoparia) [1],60%
same,pest or weed control at 31 g/ha,[2],50%
same,pest or weed control at 125 g/ha,[2],90%
same,pest or weed control at 31 g/ha,[3],60%
same,pest or weed control at 125 g/ha,[3],90%
same,pest or weed control at 31 g/ha,[4],0%
same,pest or weed control at 125 g/ha,[4],20%
same,pest or weed control at 31 g/ha,[5],0%
same,pest or weed control at 125 g/ha,[5],30%
same,pest or weed control at 31 g/ha,[6],0%
same,pest or weed control at 125 g/ha,[6],0%
same,pest or weed control at 125 g/ha,[7],60%
same,pest or weed control at 31 g/ha,[7],40%
same,pest or weed control at 125 g/ha,Kochia (Kochia scoparia) [8],60%
same,pest or weed control at 31 g/ha,Kochia (Kochia scoparia) [8],0%
same,pest or weed control at 125 g/ha,[9],80%
same,pest or weed control at 31 g/ha,[9],30%
same,pest or weed control at 125 g/ha,[10],0%
same,pest or weed control at 31 g/ha,[10],0%
same,plant injury at 125 g/ha,corn (Zea mays),0%
same,"Corn plant response rating (crop injury, 0 = no effect, 100 = complete kill) at 31 g/ha",corn (Zea mays),0%
same,pest or weed control at 125 g/ha,[11],60%
same,pest or weed control at 31 g/ha,[11],0%
same,pest or weed control at 125 g/ha,[12],20%
same,pest or weed control at 31 g/ha,[12],10%
same,pest or weed control at 125 g/ha,[13],0%
same,pest or weed control at 31 g/ha,[13],0%
same,pest or weed control at 125 g/ha,[14],0%
same,pest or weed control at 31 g/ha,[14],0%
same,plant injury at 125 g/ha,[15],0%
same,plant injury at 31 g/ha,[15],0%
same,pest or weed control at 250 g/ha,[16],70%
same,pest or weed control at 250 g/ha,[17],100%
same,pest or weed control at 250 g/ha,rice (Oryra sativa),40%
same,pest or weed control at 250 g/ha,[18],0%

# From patent US12077503B2, “Substituted cyclic amides and their use as herbicides” (FMC CORPORATION, priority 2015, dated 2024)
